Counter-ions that a name gives are not always drawn.
How the values were obtained:
Assay type in all cases: physicochemical
[1] = Shear viscosity of base formulation with additives (TA Instruments AR-G2 rheometer); settings: 5% single additive, 25 C, shear rate 1 s^-1
Text: Now referring to Table 3, the base formulations were made by mixing 1.5 or 3.0% of perfume R, 24% sodium undecyl sulfate (CAS#1072-24-8) active, 6% Lauramidopropyl Betaine (CAS#4292-10-8) active, and 60.4% deionized water which leaves 8% unfilled for oil addition and level studies (the balance being filled in by distilled water).
The complete formulations were made by adding the respective percentage of the agents from Table 3 into the base formulation, and filling the rest with deionized water to make 100% finished sample. The formulations were vortexed and put into oven at 60° C. overnight to form a homogeneous solution. For all formulations, the surfactant, water and additives including viscosity reducing agents are expected to be in a single phase.
The shear viscosity at 25 C for each formulations was measured at a shear rate of 1 s^−1 using a TA Instruments AR-G2 rheometer with a concentric cylinder attachment. Shear viscosities are reported in cP.

[2] = Kinematic viscosity of surfactant base formulation with added agent (calibrated Cannon viscometers); settings: for Kinematic viscosity at 40 C., 2% oil: 2% agent in base formulation; for Kinematic viscosity at 40 C., 4% oil: 4% agent in base formulation; for Kinematic viscosity at 40 C., 6% oil: 6% agent in base formulation; for Lowest viscosity achieved: kinematic viscosity at 40° C., lowest over 2%, 4%, 6%, 8% agent in base formulation (24% sodium undecyl sulfate, 6% lauramidopropyl betaine, 1.6% perfume); for Kinematic viscosity at 40 C., 8% oil: 8% agent in base formulation
Text: Referring to Tables 1 and 2, the base formulations were made by mixing 1.6% perfume, 24% sodium undecyl sulfate (CAS#1072-24-8) active, 6% lauramidopropyl betaine (CAS#4292-10-8) active and 60.4% deionized water which leaves 8% unfilled for the addition of a viscosity reducing agent (the balance being filled in by distilled water). For all compositions, the surfactant, water and additives including viscosity reducing agents were expected to be in a single phase.
The agents from Tables 1 and 2 were added to the base formulation at a percentage of 2%, 4%, 6%, and 8% into the above surfactant solution. The subsequent formulations were vortexed and put into oven at 60° C. overnight to form homogeneous solution. The viscosities of the formulations were measured with calibrated viscometers (Size 200/350/450) from Cannon Instrument Company (2139 High Tech Road, State College, Pa., USA, 16803).
After the equilibration, the formulations were drawn to reach the starting mark with a rubber suction bulb and the flow time between the starting mark and end mark was recorded for calculation. Each formulation was measured three times to calculate average and standard deviation. Between samples, viscometer was cleaned with water and acetone to rinse off residual.
Viscosity values were calculated based on the equation:
Viscosity (mm^2/s (cSt))=Time (s)*Constant (mm^2/s^2·(cSt/s))
The time in the above equation is the flow time recorded in the experiment and the constant numbers for each calibrated viscometer were obtained from the manuals.

[3] = NMR self-diffusion coefficients and specific diffusivity ratio; settings: for Specific diffusivity ratio measured at 4%: diffusion coefficient of the viscosity reducing agent/diffusion coefficient of the surfactant, 4% additive; for Diffusion Coefficient (m^2/s) surfactant at 4% additive: surfactant self-diffusion
Experimental: Now referring to Table 5, the specified viscosity reducing agents were added to the formula at a level of 4% in absence of other viscosity reducing agents. Diffusion coefficients were determined using a vendor-supplied pulse sequence (“ledbpgq2s”, stimulated echo with bipolar gradients and convection compensation) using a Bruker Avance 700 MHz NMR spectrometer equipped with a Diff-30 high gradient diffusion probe. Gradient pulse durations ranged between 1700-2700 us, with diffusion periods ranging from 50-100 ms. 32 linearly-spaced gradient values were used ranging from 2%-95% of 40 A current, with resulting gradient strengths given by 30 Gauss/cm/A. Data were processed using software written in-house. It is often necessary to fit more than one diffusion coefficient to individual signals. Average diffusion coefficients are reported in these cases. Averages were calculated by averaging the reciprocals of the diffusion coefficients and then taking the reciprocal of that average.
The specific diffusivity ratio is calculated as the ratio of the diffusion coefficient of the viscosity reducing agent/diffusion coefficient of the surfactant.
Two mechanisms of viscosity reduction are hypothesized based on self-diffusion coefficients. This leads to a simple diagnostic measurement to classify perfumes by their mechanism of viscosity reduction. That diagnostic is the ratio of the perfume self-diffusion coefficient to the surfactant self-diffusion coefficient (specific diffusivity ratio). In mechanism 1, the surfactant diffusion coefficient is not reduced, and may be increased, while the perfume diffusion coefficient is faster still. In mechanism 2, the surfactant and perfume diffusion coefficient are reduced to relatively small, nearly equal values. For mechanism 1, the viscosity reducing agent diffuses faster than the surfactant (specific diffusivity ratio>1), whereas for mechanism 2, the viscosity reducing agent diffuses slower than the surfactant (specific diffusivity ratio<1).

[4] = SAXS correlation length of the micelles; settings: for Change in correlation length compared to control: control 51 A
Text: Now referring to Table 4, SAXS (Small angle x-ray scattering) was used to characterize the structure of the surfactant aggregates. For these set of samples, the broad peak represents the correlation length (CL) of the micelles and was used to differentiate between the different formulations.
SAXS data was collected with a Bruker NanoSTAR (Bruker AXS Inc., Madison, Wis., U.S.A.) using the micro-focus, Cu x-ray tube, operating at 45 kV, 0.650 mA. The sample to detector distance was 112.050 cm and the detector was Vantec2K 2-dimensional area detector. Samples were placed in 2 mm quartz capillaries, sealed with expoxy resin to prevent evaporation. The sealant is permitted to cure for 2 hours at RT (room temperature) prior to loading into the SAXS sample chamber for data acquisition under vacuum with a data collection time of 1200 s. The data acquisition angular range is 0.3° to 3.0° […], to observe the presence and location of any intensity bands in the x-ray scattering pattern.
Each raw 2-D SAXS data is integrated azimuthally and plotted versus the scattering vector (q), which is expressed as a […] in units of angstroms (1/Å). • The values for q are calculated by the SAXS instrument according to the following equation: […]
Where: 2θ is the scattering angle; and λ is the wavelength used. For each formulation analyzed, the location of each intensity peak on the plot of (Intensity) I vs q is identified and recorded.

Row | SMILES | Shear viscosity [cP] for mixture ([1]; 3.0% Royal Hue) [cP] | Kinematic viscosity at 40 C., 2% oil [2] [cSt] | Kinematic viscosity at 40 C., 4% oil [2] [cSt] | Kinematic viscosity at 40 C., 6% oil [2] [cSt] | Lowest viscosity achieved [2] [cSt] | Specific diffusivity ratio measured at 4% [3] | Diffusion Coefficient (m^2/s) surfactant at 4% additive [3] [m^2/s] | Kinematic viscosity at 40 C., 8% oil [2] [cSt] | Shear viscosity [cP] for mixture ([1]; 1.5% Royal Hue) [cP] | Correlation length peak [A] ([4]; 2% oil) | Change in correlation length compared to control ([4]; 2% oil) [%] | Correlation length peak [A] ([4]; 4% oil) | Change in correlation length compared to control ([4]; 4% oil) [%]
1 | CC(=O)c1ccccc1 [Acetophenone] | 119 | – | – | – | – | – | – | – | – | – | – | – | –
2 | CCOC(=O)C1OC1(C)c1ccccc1 (stereo not drawn) [Ethyl Methyl Phenyl Glycidate] | 163 | – | – | – | – | – | – | – | – | – | – | – | –
3 | CC12CCC(CC1)C(C)(C)O2 [Eucalyptol] | 376 | 527.3 | 292.9 | 203.1 | 203 | 1.5710 | 1.2262E−11 | – | – | – | – | – | –
4 | CC(CC=O)CCCC(C)(C)O (stereo not drawn) [Hydroxycitronellal] | 161 | 310.8 | 145.4 | 65.9 | 34 | – | – | 34.1 | – | – | – | – | –
5 | C=C(C)[C@H]1CC=C(C)CC1 [Limonene] | 160 | 366.5 | 166.8 | 97.5 | 86 | 0.7428 | 2.4338E−12 | 86.4 | 40 | 57 | 11.8 | 62 | 21.6
6 | C=CC(C)(CCC=C(C)C)OC(=O)C(C)C (stereo not drawn) [Linalyl Iso Butyrate] | – | 223.4 | 73.0 | 37.7 | 38 | 0.7224 | 2.5217E−12 | 39.9 | – | 56 | 9.8 | 61 | 19.6
7 | CC(=O)CCc1ccc(O)cc1 [Raspberry Ketone] | 110 | 151.9 | 107.4 | 54.0 | 33 | 5.1364 | 9.5404E−12 | 33.0 | 160 | 50 | −2.0 | 49 | −3.9
8 | CCOC(=O)CC(O)(CC(=O)OCC)C(=O)OCC [Triethyl Citrate] | – | 269.4 | 136.6 | 66.6 | 41 | 3.9850 | 1.0196E−11 | 40.5 | – | 50 | −2.0 | 49 | −3.9
9 | CCCCCC1(C)CCC(C)(C)C1=O (stereo not drawn) [Veloutone] | – | 260.2 | 129.1 | 56.3 | 47 | 0.965 | 2.3854E−12 | 47.3 | – | 55 | 7.8 | 59 | 15.7
10 | CC1=CCC2CC1C2(C)C (stereo not drawn) [alpha-Pinene] | 207 | – | – | – | – | – | – | – | – | – | – | – | –
